Test results: PMC6836644, “A multiple classifier system identifies novel cannabinoid CB2 receptor ligands” (Journal of Cheminformatics, 2019)

Molecular target: T1, human CB2 receptor (Homo sapiens, UniProt P34972)
T1 construct: beta-galactosidase fragment (the cell line's name says 'bgal'; own knowledge: PathHunter enzyme-fragment-complementation lines carry a small beta-gal fragment fused to the receptor's C-terminus); host or cells: CHO-K1 (CHOK1hCB2_bgal), membranes
Assay: [3H]CP55940 displacement assay
Format: binding
Settings: for pKi ± SEM: [3H]CP55940 (~1.5 nM) displacement, CHOK1hCB2_bgal membranes, 25 °C, 2 h, three separate experiments in duplicate; for % displacement of the radioligand: 10 μM of the compound, [3H]CP55940, CHOK1hCB2_bgal membranes
Procedure: CHOK1hCB2_bgal cells (DiscoverRx, Fremont, CA, USA) were cultured in Dulbecco’s Modified Eagle’s Medium/Nutrient Mixture F-12 Ham supplemented with 10% fetal calf serum, 1 mM glutamine, 50 µg/mL penicillin, 50 µg/mL streptomycin, […] hygromycin and 800 µg/mL geneticin in a humidified atmosphere at 37 °C and 5% CO2. Cells were subcultured twice a week at a ratio of 1:20 on 10-cm diameter plates by trypsinization. For membrane preparation, the cells were subcultured with a ratio of 1:10 and transferred to 15-cm diameter plates. The cells were collected by scraping in 5 mL phosphate-buffered saline (PBS) and centrifuged at 1000 g for 5 min. Pellets derived from 30 plates were combined and resuspended in 20 mL cold Tris–HCl, MgCl2 buffer (50 mM Tris–HCl (pH 7.4), 5 mM MgCl2). The cell suspension was homogenized using an UltraTurrax homogenizer (Heidolph Instruments Schwabach, Germany). Membranes and cytosolic fractions were separated by centrifugation in a Beckman Optima LE-80 K ultracentrifuge (Beckman Coulter Inc., Fullerton, CA, USA) at 100,000 g for 20 min at 4 °C. The supernatant was discarded. The pellet was resuspended in 10 mL cold Tris–HCl, MgCl2 buffer and homogenization and centrifugation steps were repeated. The membranes were resuspended in 10 mL cold Tris–HCl, MgCl2 buffer. Aliquots of 50 µL were stored at -80 °C until further use. The protein concentration was determined using the Pierce™ BCA Protein Assay Kit (ThermoFisher Scientific, Waltham, MA, USA).
At first, all compounds were tested at a final concentration of 10 µM. […] Six different concentrations of the compounds were added by an HP D300 digital dispenser (Tecan Group Ltd, Männedorf, Switzerland). In order to determine the total binding, a control without test compound was included. Nonspecific binding was determined in the presence of 10 µM AM630. The total assay volume was 100 µL. The final concentration of DMSO was ≤ 0.25%. The incubation was terminated by rapid vacuum filtration through GF/C 96-well filter plates (PerkinElmer, Waltham, MA), to separate the bound and free radioligand, using a PerkinElmer Filtermate-harvester (PerkinElmer, Groningen, The Netherlands). Filters were subsequently washed […] with ice-cold assay buffer. The filter-bound radioactivity was determined by scintillation spectrometry using a Microbeta2® 2450 microplate counter (PerkinElmer, Boston, MA), after addition of 25 μl MicroScint 20 (PerkinElmer, Groningen, The Netherlands) and 3 h incubation.
All experimental data were analyzed using GraphPad Prism 7 [36]. The data were normalized to percentage specific radioligand binding, where the total binding is 100% and nonspecific binding is 0%. […] All data were obtained from three separate experiments performed in duplicate.

T1 sequence (P34972 whole entry, the tested form may be a part): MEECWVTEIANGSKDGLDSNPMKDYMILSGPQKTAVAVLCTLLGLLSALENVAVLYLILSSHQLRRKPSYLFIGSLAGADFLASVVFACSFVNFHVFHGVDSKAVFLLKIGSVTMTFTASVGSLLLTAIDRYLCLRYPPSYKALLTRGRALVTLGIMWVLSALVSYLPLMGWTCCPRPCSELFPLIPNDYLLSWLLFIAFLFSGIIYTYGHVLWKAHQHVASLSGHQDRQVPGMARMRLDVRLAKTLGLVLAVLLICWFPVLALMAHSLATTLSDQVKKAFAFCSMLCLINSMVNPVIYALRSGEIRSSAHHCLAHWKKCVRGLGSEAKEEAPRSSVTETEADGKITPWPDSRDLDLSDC

`Cc1ccc(NC(=O)C2CCC(C(C)(C)C)CC2)cc1S(=O)(=O)N1CCOCC1` (centres unmarked) [Z26476746] was tested, and the “pKi ± SEM” value was 6.54 ± 0.14.

In the case of `CCn1cc(C(=O)NCC2(N3CCOCC3)CCCCC2)c(=O)c2ccc(C)nc21` [Z27019562], the “% displacement of the radioligand” value is reported as 30%.

In the case of `CCOC(=O)c1c(NC(=O)CC23CC4CC(CC(C4)C2)C3)sc2c1CCCC2` [Z27680708], the “pKi ± SEM” value is reported as 7.46 ± 0.32.

For `Cc1nn(-c2ccccc2)c2sc(C(=O)NC34CC5CC(CC(C5)C3)C4)cc12` [Z27687279], the “% displacement of the radioligand” value was 38%.

With `Cc1ccc(C(=O)NC23CC4CC(CC(C4)C2)C3)cc1S(=O)(=O)N1CCCCC1` [Z27687312] the “pKi ± SEM” value was 7.22 ± 0.46.

In the case of `CC1(C)C2CCC1(C)C(NC(=O)C1CCN(S(=O)(=O)c3ccc(F)c(F)c3)CC1)C2` (centres unmarked) [Z28357392], the “% displacement of the radioligand” value is reported as 26%.

With `CCCCn1nc(C(=O)NC2CC3CCC2(C)C3(C)C)c2ccccc2c1=O` (centres unmarked) [Z28357657] the “pKi ± SEM” value was 6.81 ± 0.29.

With `CCC(NC(=O)c1cccc(S(=O)(=O)N2CCOCC2)c1)C12CC3CC(CC(C3)C1)C2` (centres unmarked) [Z28609248] the “% displacement of the radioligand” value was 16%.

With `Cc1ccc(C(=O)NC2CCCC(C)C2C)cc1S(=O)(=O)N1CCOCC1` (centres unmarked) [Z32934509] the “pKi ± SEM” value was 6.47 ± 0.02.

`CC1(C)C2CC=C(/C=N/NC(=O)CCc3ccc(S(=O)(=O)N4CCOCC4)cc3)C1C2` (centres unmarked) [Z44867007] was tested, and the “% displacement of the radioligand” value was 0%.

In the case of `COc1ccc(C=C(C(=O)NC2CCCCC2)C(=O)NC2CCCCC2)cc1OC` [Z46091805], the “% displacement of the radioligand” value is reported as 38%.

With `CCN(CC)c1ccc(S(=O)(=O)N2CCOCC2)cc1NS(=O)(=O)CC12CCC(CC1=O)C2(C)C` (centres unmarked) [Z55473655] the “% displacement of the radioligand” value was 7%.

In the case of `CCC(C)(C)C1CCC(NC(=O)c2cc(S(=O)(=O)N3CCOCC3)ccc2C)CC1` (centres unmarked) [Z91179667], the “% displacement of the radioligand” value is reported as 29%.

In the case of `CCc1ccc(C(=O)NC(C)C23CC4CC(CC(C4)C2)C3)cc1S(=O)(=O)N1CCOCC1` (centres unmarked) [Z336532434], the “pKi ± SEM” value is reported as 7.67 ± 0.17.

With `CC(C)C(NC(=O)CN1CCN(c2nccn2C)CC1)c1ccc2c(c1)OCCCO2` (centres unmarked) [Z1317886912] the “% displacement of the radioligand” value was 3%.

In the case of `CC1(CN2CCOCC2)CCN(CC(=O)N2CCc3sccc3C2)CC1` [Z1523102560], the “% displacement of the radioligand” value is reported as 18%.

For `COc1ccc2c(c1)c(C(=O)N(C)CC(C)OC)c(C)n2C1CC1` (centres unmarked) [Z2094674960], the “% displacement of the radioligand” value was 0%.
